Numbers after ± are expanded uncertainties.
Test: mn = molality of the nth substance listed, in mol/kg
Conditions: 298.15 K, 101 kPa, Liquid

Cl.c1c[nH]cn1 [imidazolium chloride] + O
mass density (m1 = 0.04296): 998.24 ± 0.51 kg/m3 | speed of sound (m1 = 0.04296): 1500.1 ± 1.5 m/s | mass density (m1 = 0.1027): 999.89 ± 0.5 kg/m3 | speed of sound (m1 = 0.1027): 1503.8 ± 1.5 m/s | mass density (m1 = 0.153): 1001.26 ± 0.51 kg/m3 | speed of sound (m1 = 0.153): 1507 ± 1.5 m/s | mass density (m1 = 0.1976): 1002.47 ± 0.52 kg/m3 | speed of sound (m1 = 0.1976): 1509.7 ± 1.5 m/s | mass density (m1 = 0.2417): 1003.72 ± 0.53 kg/m3 | speed of sound (m1 = 0.2417): 1512.4 ± 1.5 m/s | mass density (m1 = 0.2914): 1004.65 ± 0.53 kg/m3 | speed of sound (m1 = 0.2914): 1515.8 ± 1.5 m/s | mass density (m1 = 0.34): 1006.45 ± 0.55 kg/m3 | speed of sound (m1 = 0.34): 1517.9 ± 1.5 m/s | mass density (m1 = 0.3893): 1007.62 ± 0.55 kg/m3 | speed of sound (m1 = 0.3893): 1521.2 ± 1.5 m/s | mass density (m1 = 0.4495): 1008.96 ± 0.56 kg/m3 | speed of sound (m1 = 0.4495): 1525.2 ± 1.5 m/s | mass density (m1 = 0.5003): 1010.31 ± 0.57 kg/m3 | speed of sound (m1 = 0.5003): 1527.9 ± 1.5 m/s

O [water] + CCCCn1cc[n+](C)c1.[Cl-]
speed of sound (m2 = 0): 1497.6 ± 1.5 m/s

O [water] + Cl.Cn1ccnc1
speed of sound (m2 = 0): 1497.6 ± 1.5 m/s

O [water] + Cl.c1c[nH]cn1
speed of sound (m2 = 0): 1497.6 ± 1.5 m/s

Cl.Cn1ccnc1 [1-methylimidazolium chloride] + O
mass density (m1 = 0.05234): 998.29 ± 0.51 kg/m3 | speed of sound (m1 = 0.05234): 1501.6 ± 1.5 m/s | mass density (m1 = 0.09548): 999.3 ± 0.51 kg/m3 | speed of sound (m1 = 0.09548): 1504.7 ± 1.5 m/s | mass density (m1 = 0.147): 1000.49 ± 0.5 kg/m3 | speed of sound (m1 = 0.147): 1508.5 ± 1.5 m/s | mass density (m1 = 0.1998): 1001.69 ± 0.51 kg/m3 | speed of sound (m1 = 0.1998): 1512.5 ± 1.5 m/s | mass density (m1 = 0.2472): 1002.77 ± 0.52 kg/m3 | speed of sound (m1 = 0.2472): 1516 ± 1.5 m/s | mass density (m1 = 0.3011): 1003.97 ± 0.53 kg/m3 | speed of sound (m1 = 0.3011): 1519.9 ± 1.5 m/s | mass density (m1 = 0.3555): 1005.18 ± 0.54 kg/m3 | speed of sound (m1 = 0.3555): 1523.9 ± 1.5 m/s | mass density (m1 = 0.3994): 1006.13 ± 0.54 kg/m3 | speed of sound (m1 = 0.3994): 1526.3 ± 1.5 m/s | mass density (m1 = 0.4551): 1007.35 ± 0.55 kg/m3 | speed of sound (m1 = 0.4551): 1530.5 ± 1.5 m/s | mass density (m1 = 0.5139): 1008.62 ± 0.56 kg/m3 | speed of sound (m1 = 0.5139): 1534.6 ± 1.5 m/s

CCCCn1cc[n+](C)c1.[Cl-] [1-butyl-3-methylimidazolium chloride] + O
mass density (m1 = 0.05281): 997.72 ± 0.51 kg/m3 | speed of sound (m1 = 0.05281): 1504.8 ± 1.5 m/s | mass density (m1 = 0.09783): 998.29 ± 0.51 kg/m3 | speed of sound (m1 = 0.09783): 1510.5 ± 1.5 m/s | mass density (m1 = 0.1433): 998.85 ± 0.51 kg/m3 | speed of sound (m1 = 0.1433): 1516.7 ± 1.5 m/s | mass density (m1 = 0.1998): 999.56 ± 0.5 kg/m3 | speed of sound (m1 = 0.1998): 1524.4 ± 1.5 m/s | mass density (m1 = 0.2471): 1000.15 ± 0.5 kg/m3 | speed of sound (m1 = 0.2471): 1530.2 ± 1.5 m/s | mass density (m1 = 0.2899): 1000.69 ± 0.51 kg/m3 | speed of sound (m1 = 0.2899): 1535.5 ± 1.5 m/s | mass density (m1 = 0.3173): 1001.04 ± 0.51 kg/m3 | speed of sound (m1 = 0.3173): 1539.1 ± 1.5 m/s | mass density (m1 = 0.4052): 1002.14 ± 0.52 kg/m3 | speed of sound (m1 = 0.4052): 1549.9 ± 1.5 m/s | mass density (m1 = 0.422): 1002.35 ± 0.52 kg/m3 | speed of sound (m1 = 0.422): 1551.9 ± 1.5 m/s | mass density (m1 = 0.4995): 1003.31 ± 0.52 kg/m3 | speed of sound (m1 = 0.4995): 1562.2 ± 1.5 m/s

Reference: the NIST ThermoML archive (doi:10.1016/j.jct.2007.10.007)
